“And” between values parts separate entries of the source, which are not always exact repeats. Equal values may be shown once.
What was measured:
[1] = test system: OPM-2 MM xenografts; test: In vivo antitumor efficacy against OPM-2 MM xenografts; details: Day 31, s.c. OPM-2 xenografts in female Scid beige mice, bortezomib 0.5 mg/kg iv 2xQ7D; for Tumor Regression % / TGI % (Tumor growth inhibition): RG6146 30 mg/kg ip QD D17-31; for TGI % (Tumor growth inhibition): vs control; for npTCR (non-parametric Treatment to Control Ratio) / Tumor free animal (complete tumor remission): RG6146 30 mg/kg ip QD; for npTCR (non-parametric Treatment to Control Ratio): CI printed in the lines below; for Tumor free animal (complete tumor remission): animals tumor free / group
Protocol: The in vivo antitumor efficacy of BET inhibitor RG6146 in combination with proteasome inhibitor bortezomib was evaluated against OPM-2 MM xenografts.
The original OPM-2 human Multiple Myeloma cell line (MM) was purchased from ATCC (Manassas, Va., USA). Expansion of tumor cells for the transplantation was done by the TAP CompacT CellBase Cell Culture Roboter according to the protocol. Tumor cell line was routinely cultured in RPMI 1640 medium, FCS 10% and L-Glutamin 2 mM at 37° C. in a water-saturated atmosphere at 5% CO2. Culture passage was performed with trypsin/EDTA 1× splitting twice/week and passage 2 used for transplantation.
Female Scid beige mice (Charles River), age 6-7 weeks at arrival, maintained under specific-pathogen-free condition with daily cycles of 12 h light/12 h darkness according to committed guidelines. Experimental study protocol was reviewed and approved by local government. After arrival animals were maintained in animal facility for one week to get accustomed to new environment and for observation. Continuous health monitoring was carried out on regular basis. Diet food and autoclaved water were provided ad libitum.
(§1) Animals were controlled daily for clinical symptoms and detection of adverse effects. For monitoring throughout the experiment body weight of animals was documented.
Animal treatment started after randomisation when median tumor size was about 115 mm^3. The vehicle was administered ip once daily (QD) on D17-31. BET inhibitor RG6146 ip treatment at 30 mg/kg was done as single agent and in combination on D17-31. Finally, proteasome inhibitor bortezomib was given i.v. at 0.5 mg/kg as single agent and in combination twice a week for two weeks.
OPM-2 human MM cells were s.c. inoculated with Matrigel onto female Scid beige mice. Tumor bearing mice were randomized 17 days later to the indicated study groups and compound treatment initiated. Tumor bearing animals were treated with vehicle control, with the BET inhibitor RG6146 at 30 mg/kg or with proteasome inhibitor bortezomib at 0.5 mg/kg as single agent and in combination thereof.

[2] = test system: MM1S MM xenografts; test: In vivo antitumor efficacy against MM1S MM xenografts; details: Day 28, s.c. MM1s xenografts in female CIEA NOG mice, bortezomib 0.5 mg/kg iv 2 x Q7D; for Tumor Regression % / TGI % (Tumor growth inhibition): RG6146 30 mg/kg ip QD D14-28; for TGI % (Tumor growth inhibition): vs control; for npTCR (non-parametric Treatment to Control Ratio): RG6146 30 mg/kg ip QD, CI printed in the line below
Protocol: The in vivo antitumor efficacy of BET inhibitor RG6146 in combination with proteasome inhibitor bortezomib was evaluated against MM1S MM xenografts.
The original MM1s human Multiple Myeloma cell line (MM) was purchased from ATCC (Manassas, Va., USA). Expansion of tumor cells for the transplantation was done by the TAP CompacT CellBase Cell Culture Roboter according to the protocol. Tumor cell line was routinely cultured in RPMI 1640 medium, FCS 10% and L-Glutamin 2 mM at 37° C. in a water-saturated atmosphere at 5% CO2. Culture passage was performed with trypsin/EDTA 1× splitting twice/week and passage 2 used for transplantation.
Female CIEA NOG mice (Taconic), age 5-6 weeks at arrival, maintained under specific-pathogen-free condition with daily cycles of 12 h light/12 h darkness according to committed guidelines. Experimental study protocol was reviewed and approved by local government. After arrival animals were maintained in animal facility for one week to get accustomed to new environment and for observation. Continuous health monitoring was carried out on regular basis. Diet food and autoclaved water were provided ad libitum.
as §1
Animal treatment started after randomisation when median tumor size was about 100 mm^3. The vehicle was administered ip once daily (QD) on D14-28. BET inhibitor RG6146 ip treatment at 30 mg/kg was done as single agent and in combination on D14-28. Finally, proteasome inhibitor bortezomib was given i.v. at 0.5 mg/kg as single agent and in combination twice a week for two weeks.
MM1s human MM cells were s.c. inoculated with Matrigel onto female CIEA-NOG mice. Tumor bearing mice were randomized 14 days later to the indicated study groups and compound treatment initiated. Tumor bearing animals were treated with vehicle control, with the BET inhibitor RG6146 at 30 mg/kg or with proteasome inhibitor bortezomib at 0.5 mg/kg as single agent and in combination thereof.

| Structure (SMILES) | Tumor Regression % [1] [%] | TGI % (Tumor growth inhibition) [1] [%] | npTCR (non-parametric Treatment to Control Ratio) [1] | Tumor free animal (complete tumor remission) [1] | Tumor Regression % [2] [%] | TGI % (Tumor growth inhibition) [2] [%] | npTCR (non-parametric Treatment to Control Ratio) [2] |
| --- | --- | --- | --- | --- | --- | --- | --- |
| Cc1sc2c(c1C)C(c1ccc(Cl)cc1)=N[C@@H](CC(=O)NCCCN1CCN(C)CC1)c1nnc(C)n1-2 [RG6146, 2-[(S)-4-(4-chloro-phenyl)-2,3,9-trimethyl-6H-1-thia-5,7,8,9a-tetraaza-cyclopenta[e]azulen-6-yl]-N-[3-(4-methyl-piperazin-1-yl)-propyl]-acetamide] | 85 | >100 | 0.008 | 5 out of 10 and 5/10 | 0 | 83 | 0.29 |
| CC(C)C[C@H](NC(=O)[C@H](Cc1ccccc1)NC(=O)c1cnccn1)B(O)O [bortezomib, [(1R)-3-methyl-1-[[(2S)-3-phenyl-2-(pyrazine-2-carbonylamino)propanoyl]amino]butyl]boronic acid, reference compound] | 0 | 60 | 0.34 | 0/10 | 0 | 29 | 0.75 |
